Counter-ions that a name gives are not always drawn. Like-named read-outs stand apart in the source and are kept apart here.
Columns and labels:
[1] = tested on: phosphorylation of the IRF-3 protein in MDA-MB-468 cells; test: pIRF3 immunocytochemistry cell based assay; conditions: Homo sapiens
Method in brief: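 MDA-MB-468 cells got compounds (10-point, 3-fold from 10 uM) for 1 h at 37 °C, then 10 ug/ml Poly(I:C) for 2 h. Fixed, permeabilized cells were immunostained for pIRF3 with AlexaFluor488 and counterstained with PI. % phosphorylation was read by laser scanning cytometry, and IC50 curves were fitted.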

TBK1 = target: T1, TBK1 (Homo sapiens, UniProt Q9UHD2); test: TBK Biochemical Assay; conditions: read-out: TBK1 IC50
T1 sequence (Q9UHD2 1-729): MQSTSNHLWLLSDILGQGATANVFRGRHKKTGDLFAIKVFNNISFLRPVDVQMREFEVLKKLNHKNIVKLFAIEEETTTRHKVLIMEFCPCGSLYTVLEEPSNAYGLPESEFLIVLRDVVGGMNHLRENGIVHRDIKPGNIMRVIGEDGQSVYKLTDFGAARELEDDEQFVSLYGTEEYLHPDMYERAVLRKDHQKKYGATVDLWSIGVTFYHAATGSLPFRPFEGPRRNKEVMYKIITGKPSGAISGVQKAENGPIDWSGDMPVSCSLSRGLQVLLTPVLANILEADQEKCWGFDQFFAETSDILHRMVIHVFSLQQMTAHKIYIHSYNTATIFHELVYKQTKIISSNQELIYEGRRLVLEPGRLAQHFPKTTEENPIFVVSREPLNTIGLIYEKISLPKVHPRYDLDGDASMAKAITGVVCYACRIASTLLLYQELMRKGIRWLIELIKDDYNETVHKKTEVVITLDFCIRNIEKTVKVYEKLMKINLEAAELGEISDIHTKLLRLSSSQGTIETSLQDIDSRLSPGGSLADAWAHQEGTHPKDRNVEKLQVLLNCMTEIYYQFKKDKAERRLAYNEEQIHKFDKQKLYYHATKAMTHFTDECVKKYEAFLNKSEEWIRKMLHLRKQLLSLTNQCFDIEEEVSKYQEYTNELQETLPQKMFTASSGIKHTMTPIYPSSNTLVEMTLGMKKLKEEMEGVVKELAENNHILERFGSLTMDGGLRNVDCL
Method in brief: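 TBK1 enzyme and substrate incubated with compounds (10-point 1:4 dilution, top 30 uM final, 1% DMSO) for 90 min at 25° C, then stopped. Substrate/product peaks read by microfluidic mobility-shift (Caliper LabChip); 10 uM staurosporine as full-inhibition control.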

IKKε = target: T2, IKKε (Homo sapiens, UniProt Q14164); test: IKKe Biochemical Assay; conditions: read-out: IKKε IC50
T2 sequence (Q14164 1-716): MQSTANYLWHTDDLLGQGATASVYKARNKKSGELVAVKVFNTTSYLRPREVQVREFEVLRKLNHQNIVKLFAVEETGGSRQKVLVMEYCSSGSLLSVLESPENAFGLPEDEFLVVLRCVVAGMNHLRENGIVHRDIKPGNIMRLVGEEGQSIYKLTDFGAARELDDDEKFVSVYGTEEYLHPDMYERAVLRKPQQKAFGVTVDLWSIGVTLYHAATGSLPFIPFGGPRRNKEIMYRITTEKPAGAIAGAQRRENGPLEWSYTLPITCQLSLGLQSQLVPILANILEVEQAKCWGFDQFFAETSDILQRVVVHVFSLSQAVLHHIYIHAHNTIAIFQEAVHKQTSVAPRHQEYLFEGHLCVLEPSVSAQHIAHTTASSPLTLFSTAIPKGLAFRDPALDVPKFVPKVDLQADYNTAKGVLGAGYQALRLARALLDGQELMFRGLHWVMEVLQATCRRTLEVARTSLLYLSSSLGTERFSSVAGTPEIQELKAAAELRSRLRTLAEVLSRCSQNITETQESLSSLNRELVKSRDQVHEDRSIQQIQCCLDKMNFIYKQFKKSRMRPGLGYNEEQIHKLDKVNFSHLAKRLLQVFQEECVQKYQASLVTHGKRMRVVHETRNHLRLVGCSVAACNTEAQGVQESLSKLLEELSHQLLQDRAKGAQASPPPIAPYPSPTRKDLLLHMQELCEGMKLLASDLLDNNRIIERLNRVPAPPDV
Method in brief: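 Recombinant IKKε and substrate were incubated with compound (10-point 1:4 series, top 30 uM final, 1% DMSO) for 90 min at 25° C, then stopped. Substrate-to-product conversion was read by LabChip microfluidic mobility shift; 10 uM staurosporine served as full-inhibition wells.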

[2] = MDA-MB-468, read-out: pIRF3 IC50
[3] = MDA-MB-468 cells, Poly(I:C) stimulation, read-out: pIRF3 IC50

| IC50 (TBK1) | IC50 (IKKε) | IC50 [1, 3] | Structure (SMILES) | IC50 [1, 2] |
| --- | --- | --- | --- | --- |
| < 0.1 µM | < 0.1 µM | 0.1 to 1 µM | COc1cc(C(=O)N(C)C)ncc1-c1cc2nccc(-c3cnc(OC4CCOCC4)c(C#N)c3)c2o1 [Compound 388, 5-[7-[5-cyano-6-(oxan-4-yloxy)pyridin-3-yl]furo[3,2-b]pyridin-2-yl]-4-methoxy-N,N-dimethylpyridine-2-carboxamide] | – |
| < 0.1 µM | < 0.1 µM | 0.1 to 1 µM | COc1cc(C(=O)N(C)CCO)cnc1-c1cc2ncc(F)c(-c3ccc(OC4CCOCC4)c(C#N)c3)c2o1 [Compound 334, 6-[7-[3-cyano-4-(oxan-4-yloxy)phenyl]-6-fluorofuro[3,2-b]pyridin-2-yl]-N-(2-hydroxyethyl)-5-methoxy-N-methylpyridine-3-carboxamide] | – |
| < 0.1 µM | < 0.1 µM | 0.1 to 1 µM | COc1cc(C(=O)N(C)C)ccc1-c1cc2ncc(F)c(-c3ccc(NC4CCOCC4)c(C#N)c3)c2o1 [Compound 299, 4-(7-[3-cyano-4-[(oxan-4-yl)amino]phenyl]-6-fluorofuro[3,2-b]pyridin-2-yl)-3-methoxy-N,N-dimethylbenzamide] | – |
| < 0.1 µM | < 0.1 µM | 0.1 to 1 µM | COc1cc(C(=O)NCC(C)(C)N(C)C)ccc1-c1cc2nccc(-c3ccc(NC4CCOCC4)c(C#N)c3)c2o1 [Compound 499, 4-{7-[3-Cyano-4-(tetrahydro-pyran-4-ylamino)-phenyl]-furo[3,2-b]pyridin-2-yl}-N-(2-dimethylamino-2-methyl-propyl)-3-methoxy-benzamide] | – |
| < 0.1 µM | < 0.1 µM | < 0.1 µM | COc1cc(C(=O)N2CCCCC2CO)ccc1-c1cc2nccc(-c3ccc(OC4CCOCC4)c(C#N)c3)c2o1 (stereo not drawn) [Compound 10] | – |
| 0.1 to 1 µM | < 0.1 µM | 0.1 to 1 µM | COc1cc(C(=O)NC2C3COCC32)ccc1-c1cc2nccc(-c3ccc(N4CC[C@@H](F)C4)c(C#N)c3)c2o1 (stereo partly drawn) [Compound 498] | – |
| < 0.1 µM | < 0.1 µM | 0.1 to 1 µM | COc1cc(C(=O)NC2C3COCC32)cnc1-c1cc2nccc(-c3ccc(N4CC[C@H](F)C4)c(C#N)c3)c2o1 (stereo in doubt) [Compound 465, 6-[7-[3-cyano-4-(3-fluoropyrrolidin-1-yl)phenyl]furo[3,2-b]pyridin-2-yl]-5-methoxy-N-[3-oxabicyclo[3.1.0]hexan-6-yl]pyridine-3-carboxamide] | – |
| < 0.1 µM | < 0.1 µM | 1 to 5 µM | N#Cc1cc(-c2ccnc3cc(-c4ccc(C(=O)N5CCC(F)(F)C5)cc4)oc23)ccc1OC1CCOCC1 [Compound 148, 5-{2-[4-(3,3-Difluoro-pyrrolidine-1-carbonyl)-phenyl]-furo[3,2-b]pyridin-7-yl}-2-(tetrahydro-pyran-4-yloxy)-benzonitrile] | – |
| < 0.1 µM | < 0.1 µM | < 0.1 µM | COc1cc(C(=O)N2CC3C2CCN3C)ccc1-c1cc2nccc(-c3ccc(OC4CCOCC4)c(C#N)c3)c2o1 (stereo not drawn) [Compound 474, 5-{2-[2-Methoxy-4-(2-methyl-2,6-diaza-bicyclo[3.2.0]heptane-6-carbonyl)-phenyl]-furo[3,2-b]pyridin-7-yl}-2-(tetrahydro-pyran-4-yloxy)-benzonitrile] | – |
| 0.1 to 1 µM | < 0.1 µM | 0.1 to 1 µM | COc1cc(C(=O)N(C)C)ccc1-c1cc2nccc(-c3ccc(OC4CCNCC4)c(C#N)c3)c2o1 [Compound 158, 4-{7-[3-Cyano-4-(piperidin-4-yloxy)-phenyl]-furo[3,2-b]pyridin-2-yl}-3-methoxy-N,N-dimethyl-benzamide Hydrochloride] | – |
| < 0.1 µM | < 0.1 µM | < 0.1 µM | COc1cc(C(=O)NC(C)(C)CCN(C)C)ccc1-c1cc2nccc(-c3ccc(NC4CCOCC4)c(C#N)c3)c2o1 [Compound 514, 4-{7-[3-Cyano-4-(tetrahydro-pyran-4-ylamino)-phenyl]-furo[3,2-b]pyridin-2-yl}-N-(3-dimethylamino-1,1-dimethyl-propyl)-3-methoxy-benzamide] | – |
| < 0.1 µM | < 0.1 µM | 0.1 to 1 µM | COc1cc(C(=O)N(C)C)ccc1-c1cc2nccc(-c3ccc(NC4CCOCC4O)c(C#N)c3)c2o1 (stereo not drawn) [Compound 82] | – |
| < 0.1 µM | < 0.1 µM | 0.1 to 1 µM | COc1cc(C(=O)NCC2CCNCC2)ccc1-c1cc2nccc(-c3ccc(OC4CCOCC4)c(C#N)c3)c2o1 [Compound 92, 4-{7-[3-Cyano-4-(tetrahydro-pyran-4-yloxy)-phenyl]-furo[3,2-b]pyridin-2-yl}-3-methoxy-N-piperidin-4-ylmethyl-benzamide hydrochloride] | – |
| < 0.1 µM | < 0.1 µM | 0.1 to 1 µM | COc1cc(C(=O)NC2CCN(C)C2)ccc1-c1cc2nccc(-c3ccc(OC4CCOCC4)c(C#N)c3)c2o1 (stereo not drawn) [Compound 64, 4-{7-[3-Cyano-4-(tetrahydro-pyran-4-yloxy)-phenyl]-furo[3,2-b]pyridin-2-yl}-3-methoxy-N-(1-methyl-pyrrolidin-3-yl)-benzamide] | – |
| < 0.1 µM | < 0.1 µM | 0.1 to 1 µM | COc1cc(C(=O)NC(C)(C)CCN(C)C)ncc1-c1cc2nccc(-c3ccc(NC4CCOCC4)c(C#N)c3)c2o1 [Compound 423, 5-(7-[3-cyano-4-[(oxan-4-yl)amino]phenyl]furo[3,2-b]pyridin-2-yl)-N-[4-(dimethylamino)-2-methylbutan-2-yl]-4-methoxypyridine-2-carboxamide] | – |

| Structure (SMILES) | IC50 (TBK1) | IC50 (IKKε) | IC50 [1, 3] | IC50 [1, 2] |
| --- | --- | --- | --- | --- |
| COc1cc(C(=O)N[C@@]23C[C@@H]2CN(C(C)C)C3)ccc1-c1cc2nccc(-c3ccc(OC4CCOCC4)c(C#N)c3)c2o1 [Compound 372, 4-[7-[3-cyano-4-(oxan-4-yloxy)phenyl]furo[3,2-b]pyridin-2-yl]-3-methoxy-N-[(1S,5R)-3-(propan-2-yl)-3-azabicyclo[3.1.0]hexan-1-yl]benzamide] | < 0.1 µM | < 0.1 µM | – | 0.1 to 1 µM |
| COc1c(C(=O)N(C)C)nn(C)c1-c1cc2nccc(-c3ccc(OC4CCOCC4)c(C#N)c3)c2o1 [Compound 401, 5-[7-[3-cyano-4-(oxan-4-yloxy)phenyl]furo[3,2-b]pyridin-2-yl]-4-methoxy-N,N,1-trimethyl-1H-pyrazole-3-carboxamide hydrochloride] | < 0.1 µM | < 0.1 µM | – | 0.1 to 1 µM |
| COc1cc(C(=O)NC2CN(CC(C)C)C2)ccc1-c1cc2nccc(-c3ccc(OC4CCOCC4)c(C#N)c3)c2o1 [Compound 355, 4-[7-[3-cyano-4-(oxan-4-yloxy)phenyl]furo[3,2-b]pyridin-2-yl]-3-methoxy-N-[1-(2-methylpropyl)azetidin-3-yl]benzamide] | < 0.1 µM | < 0.1 µM | – | 0.1 to 1 µM |
| COc1cc(C(=O)NC2CN3CCC2CC3)ncc1-c1cc2nccc(-c3ccc(N4CCC(F)C4)c(C#N)c3)c2o1 (stereo not drawn) [Compound 443, N-[1-azabicyclo[2.2.2]octan-3-yl]-5-[7-[3-cyano-4-(3-fluoropyrrolidin-1-yl)phenyl]furo[3,2-b]pyridin-2-yl]-4-methoxypyridine-2-carboxamide] | < 0.1 µM | < 0.1 µM | 0.1 to 1 µM | – |

— US10428080B2, “TBK/IKK inhibitor compounds and uses thereof” (Merck Patent GmbH, priority 2015, dated 2019)
